Results: ChEMBL document CHEMBL1201862, “PubChem BioAssay data set” (2004)
Activity calls are given as the source filed them. The rule behind the calls is not given here.

What was measured:
[1] = molecular target: T1, High affinity choline transporter 1 (Homo sapiens, UniProt Q9GZV3); assay: human choline transporter blockers, potency – cell-based, 10-point CRC, membrane potential dye, dose response (AID 588401); format: functional;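 note: membrane potential dye fluorescence of choline-evoked depolarization via CHT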
T1 sequence (Q9GZV3 whole entry): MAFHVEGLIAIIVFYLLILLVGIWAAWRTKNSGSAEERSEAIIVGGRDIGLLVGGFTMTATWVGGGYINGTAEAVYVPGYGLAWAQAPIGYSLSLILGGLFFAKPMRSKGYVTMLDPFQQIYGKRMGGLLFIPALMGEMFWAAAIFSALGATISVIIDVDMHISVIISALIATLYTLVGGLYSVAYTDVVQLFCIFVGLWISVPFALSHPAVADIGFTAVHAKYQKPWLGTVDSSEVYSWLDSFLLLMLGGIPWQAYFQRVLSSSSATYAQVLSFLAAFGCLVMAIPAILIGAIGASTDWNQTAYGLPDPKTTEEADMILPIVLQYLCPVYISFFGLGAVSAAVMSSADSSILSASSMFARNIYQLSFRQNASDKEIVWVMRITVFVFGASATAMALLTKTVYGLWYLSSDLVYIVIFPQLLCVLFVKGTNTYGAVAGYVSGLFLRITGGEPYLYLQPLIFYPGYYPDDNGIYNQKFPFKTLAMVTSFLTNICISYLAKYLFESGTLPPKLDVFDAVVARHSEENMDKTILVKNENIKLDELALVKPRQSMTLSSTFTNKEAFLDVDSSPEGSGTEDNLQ

[2] = molecular target: T1, High affinity choline transporter 1; assay: human choline transporter blockers, potency – cell-based, 5-point CRC, membrane potential dye, dose response (AID 504840); format: functional

Which IC50 [1] does the source give for `CCOc1ccccc1Nc1ccc2nonc2c1[N+](=O)[O-]` here?
Its IC50 is 4.28 µM (active).

What about the IC50 [2] of the same compound?
The IC50 was 7.88 µM (active).
